Results reported in patent US20260317319A1, “NOVEL ERGOLINES AND METHODS OF TREATING MOOD DISORDERS” (Gilgamesh Pharma Inc., priority 2023, published 2026).
Where two headings read alike, the source gives them in different places.

Assays:
in vitro [1] = type: in vitro ADME, human; settings: for microsomal CLint: read-out: Intrinsic clearance (Clint); for half-life: read-out: half-life (t1/2)
5-HT2B receptor = molecular target: T1, 5-HT2B receptor (Homo sapiens, UniProt P41595); experiment: cell-based; type: cell-based; settings: Ca2+ flux; for Emax: HEK293, agonist, read-out: 5-HT2B % Act @ Max Dose; for EC50: HEK293
T1 construct: expressed in transfected cells; host or cells: HEK293, stably transfected
Method in brief: (§1)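 FLIPR Tetra fluorescence read-out of calcium flux after compound addition. Receptor-expressing stable lines were used (HEK293 for 2A/2B; CHO with Gα15 for 1A), dye-loaded with Fluo-4 Direct and 2.5 mM final probenecid, 50 min at 37 °C.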

in vitro [2] = type: in vitro ADME, rat; settings: for microsomal CLint: read-out: Intrinsic clearance (Clint); for half-life: read-out: half-life (t1/2)
Text: RLM Stability Pooled RLM from male Sprague-Dawley rats (Xenotech R1000) were used.

5-HT2A receptor [3] = molecular target: T2, 5-HT2A receptor (Homo sapiens, UniProt P28223); experiment: cell-based; type: cell-based; set-up: expressed in transfected cells; host or cells: HEK293, stably transfected; settings: Ca2+ flux; for Emax: HEK293, agonist, HEK293, max dose, read-out: 5-HT2A % Act @ Max Dose; for EC50: agonist, HEK293
Method in brief: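 FLIPR Ca2+ flux agonist assay using stably transfected HEK293 (5-HT2A, 5-HT2B) or CHO cells co-expressing Gα15 (5-HT1A). Cells loaded with Fluo-4 Direct plus 2.5 mM probenecid (final) for 50 min at 37 °C, then compound added and fluorescence read.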

5-HT2A receptor [4] = molecular target: T2, 5-HT2A receptor; experiment: cell-based; type: cell-based; settings: beta-arrestin recruitment; for Emax: read-out: 5-HT2A Arrestin % Act @ Max Dose; for EC50: PathHunter, read-out: 5-HT2A Arrestin EC50
Method in brief: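 PathHunter β-arrestin recruitment (enzyme fragment complementation): 5-HT2A fused to ProLink donor in cells co-expressing β-arrestin–β-galactosidase acceptor, seeded and held at 37° C before testing. Chemiluminescent read-out; agonist % activity = (sample RLU − vehicle)/(max control ligand − vehicle) × 100.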

5-HT1B receptor = molecular target: T3, 5-HT1B receptor (Homo sapiens, UniProt P28222); experiment: cAMP accumulation functional assay at 5-HT1B; type: cell-based; settings: agonist, cAMP accumulation; for Emax: max dose, read-out: 5-HT1B % Act @ Max Dose
T3 construct: expressed in transfected cells
Method in brief: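 Agonist activity measured as cAMP accumulation in cells stably transfected with human 5-HT1B. Cells incubated 60 min at RT, then detection reagent added for a further 60 min at RT before plate reading.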

in vitro [5] = type: in vitro ADME, mouse; settings: for microsomal CLint: read-out: Intrinsic clearance (Clint); for half-life: read-out: half-life (t1/2)
Text: MLM Stability Pooled MLM from male CD-1 mice (BIOIVT M00501) were used.

5-HT1A receptor = molecular target: T4, 5-HT1A receptor (Homo sapiens, UniProt P08908); experiment: cell-based; settings: agonist, Ca2+ flux; for Emax: CHO, CHO cells with Gα15, max dose, read-out: 5-HT1A % Act @ Max Dose; for EC50: CHO cells with Gα15
T4 construct: expressed in transfected cells; host or cells: CHO cells, stably transfected
T4 sequence (P08908 1-422): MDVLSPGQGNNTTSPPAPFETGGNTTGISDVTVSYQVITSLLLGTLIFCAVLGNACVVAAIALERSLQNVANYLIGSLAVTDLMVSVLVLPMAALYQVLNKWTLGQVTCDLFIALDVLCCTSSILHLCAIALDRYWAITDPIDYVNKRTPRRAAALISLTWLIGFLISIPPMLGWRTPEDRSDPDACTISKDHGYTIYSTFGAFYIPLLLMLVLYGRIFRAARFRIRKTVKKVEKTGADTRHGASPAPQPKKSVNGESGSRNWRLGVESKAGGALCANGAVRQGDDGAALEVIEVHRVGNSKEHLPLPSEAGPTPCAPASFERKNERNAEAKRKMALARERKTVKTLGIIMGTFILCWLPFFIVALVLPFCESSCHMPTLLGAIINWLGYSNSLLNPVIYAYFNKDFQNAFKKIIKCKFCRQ
Method in brief: as §1

[6] = HLM 0.50 mg/mL, NADPH 1 mM, 1 μM compound, pH 7.4, 37° C., 60 min
[7] = RLM (male Sprague-Dawley) 0.50 mg/mL, NADPH 1 mM, 1 μM compound, pH 7.4, 37° C., 60 min
[8] = MLM (male CD-1) 0.50 mg/mL, NADPH 1 mM, 1 μM compound, pH 7.4, 37° C., 60 min
[9] = human, microsomes, HLM 0.50 mg/mL, NADPH 1 mM, 1 μM compound, pH 7.4, 37° C., 60 min
[10] = rat, microsomes, RLM (male Sprague-Dawley) 0.50 mg/mL, NADPH 1 mM, 1 μM compound, pH 7.4, 37° C., 60 min
[11] = mouse, microsomes, MLM (male CD-1) 0.50 mg/mL, NADPH 1 mM, 1 μM compound, pH 7.4, 37° C., 60 min

T3 sequence (P28222 whole entry): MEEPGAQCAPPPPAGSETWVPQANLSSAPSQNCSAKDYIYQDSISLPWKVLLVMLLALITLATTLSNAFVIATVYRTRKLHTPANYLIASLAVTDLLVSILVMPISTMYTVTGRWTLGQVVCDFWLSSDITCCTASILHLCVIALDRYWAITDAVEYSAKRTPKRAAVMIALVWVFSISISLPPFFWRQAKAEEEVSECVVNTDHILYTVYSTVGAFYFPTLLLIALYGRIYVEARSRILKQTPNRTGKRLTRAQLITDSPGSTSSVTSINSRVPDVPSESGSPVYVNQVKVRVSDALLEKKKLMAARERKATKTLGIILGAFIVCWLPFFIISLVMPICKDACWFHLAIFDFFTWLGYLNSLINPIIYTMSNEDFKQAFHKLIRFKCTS
T1 sequence (P41595 whole entry): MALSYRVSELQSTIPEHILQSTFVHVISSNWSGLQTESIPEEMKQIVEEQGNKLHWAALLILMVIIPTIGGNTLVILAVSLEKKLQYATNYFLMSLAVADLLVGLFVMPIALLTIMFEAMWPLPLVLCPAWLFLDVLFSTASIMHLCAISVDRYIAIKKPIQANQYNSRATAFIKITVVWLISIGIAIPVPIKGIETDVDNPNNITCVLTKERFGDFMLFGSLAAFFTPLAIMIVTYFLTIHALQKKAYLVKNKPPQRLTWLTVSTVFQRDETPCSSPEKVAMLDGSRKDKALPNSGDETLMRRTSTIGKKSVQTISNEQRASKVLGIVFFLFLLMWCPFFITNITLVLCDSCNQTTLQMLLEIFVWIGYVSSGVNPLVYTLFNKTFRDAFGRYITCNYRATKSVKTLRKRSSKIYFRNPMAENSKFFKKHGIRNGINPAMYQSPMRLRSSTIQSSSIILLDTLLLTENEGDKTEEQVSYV
T2 sequence (P28223 whole entry): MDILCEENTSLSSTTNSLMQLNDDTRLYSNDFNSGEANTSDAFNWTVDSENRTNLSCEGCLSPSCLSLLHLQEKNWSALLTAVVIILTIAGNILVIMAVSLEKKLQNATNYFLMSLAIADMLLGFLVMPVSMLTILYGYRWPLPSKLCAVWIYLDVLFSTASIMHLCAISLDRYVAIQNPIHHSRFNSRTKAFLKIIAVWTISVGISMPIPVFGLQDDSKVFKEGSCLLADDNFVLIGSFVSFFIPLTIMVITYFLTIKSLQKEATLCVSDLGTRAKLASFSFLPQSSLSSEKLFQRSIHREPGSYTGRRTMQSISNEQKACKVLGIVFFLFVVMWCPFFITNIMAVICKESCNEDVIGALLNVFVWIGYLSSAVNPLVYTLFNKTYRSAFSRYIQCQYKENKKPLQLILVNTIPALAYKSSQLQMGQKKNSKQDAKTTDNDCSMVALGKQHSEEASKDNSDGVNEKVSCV

SMILES	stability in HLM (in vitro [1])	half-life (t1/2) (in vitro [1]; [6]) [min]	Emax (5-HT2B receptor; HEK293, max dose) [%]	stability in RLM (in vitro [2])	half-life (t1/2) (in vitro [2]; [7]) [min]	Emax (5-HT2A receptor [3]) [%]	Emax (5-HT2A receptor [4]; agonist, max dose) [%]	5-HT2A arrestin agonist class (5-HT2A receptor [4])	Emax (5-HT1B receptor) [%]	Emax (5-HT1A receptor) [%]	microsomal CLint (in vitro [1]; [9]) [µL/min/mg]	half-life (in vitro [1]; [9]) [min]	EC50 (5-HT2B receptor; agonist) [nM]	EC50 (5-HT2A receptor [3]) [nM]	EC50 (5-HT1B receptor) [nM]	EC50 (5-HT1A receptor) [nM]	microsomal CLint (in vitro [2]; [10]) [µL/min/mg]	half-life (in vitro [2]; [10]) [min]	microsomal CLint (in vitro [5]; [11]) [µL/min/mg]	half-life (in vitro [5]; [11]) [min]	other results
CCCN1C[C@H](C(=O)N(CC)CC)C=C2c3cccc4[nH]cc(c34)C[C@H]21 [Compound 1, (6aR,9R)—N,N-diethyl-7-propyl-4,6,6a,7,8,9-hexahydroindolo[4,3-fg]quinoline-9-carboxamide]	much lower stability (higher clearance)	15.1	104	much lower stability (higher clearance)	16.2	97	129	full agonists	96.6	95.6											stability in MLM (in vitro [5]): much lower stability (higher clearance); half-life (t1/2) (in vitro [5]; [8]): 2.3 min
C=CCN1C[C@H](C(=O)N[C@H](C)CC)C=C2c3cccc4[nH]cc(c34)C[C@H]21 [Compound 8, (6aR,9R)-7-allyl-N—((R)-sec-butyl)-4,6,6a,7,8,9-hexahydroindolo[4,3-fg]quinoline-9-carboxamide]	much lower stability (higher clearance)	7.9	91.6	much lower stability (higher clearance)	7.7	99.2	112	full agonists		116											stability in MLM (in vitro [5]): much lower stability (higher clearance); half-life (t1/2) (in vitro [5]; [8]): 3.7 min
CCN(CC)C(=O)[C@@H]1C=C2c3cccc4[nH]cc(c34)C[C@H]2N(CCc2ccccc2OC)C1 [Compound 11, (6aR,9R)—N,N-diethyl-7-(2-methoxyphenethyl)-4,6,6,7,8,9-hexahydroindolo[4,3-fg]quinoline-9-carboxamide]	much lower stability (higher clearance)	2.372		much lower stability (higher clearance)	1.159																Intrinsic clearance (Clint) (in vitro [1]; [6]): 584.336 µL/min/mg; 5-HT2B % Act @ Max Dose (5-HT2B receptor; agonist, HEK293, max dose): 2.5%; Intrinsic clearance (Clint) (in vitro [2]; [7]): 1195.423 µL/min/mg; 5-HT2A Arrestin % Act @ Max Dose (5-HT2A receptor [4]; agonist, max dose): 54.26%; stability in MLM (in vitro [5]): much lower stability (higher clearance); Intrinsic clearance (Clint) (in vitro [5]; [8]): 1512.047 µL/min/mg; half-life (t1/2) (in vitro [5]; [8]): 0.917 min
CCN(CC)C(=O)[C@@H]1C=C2c3cccc4[nH]cc(c34)C[C@H]2N(Cc2ccc(F)cc2)C1 [Compound 49, (6aR,9R)—N,N-diethyl-7-(4-fluorobenzyl)-4,6,6a,7,8,9-hexahydroindolo[4,3-fg]quinoline-9-carboxamide]			3.58			92.5	39.4		37.9	14.3	87.8	15.8	> 10000	1590	> 10000	> 10000					EC50 (5-HT2A receptor [4]; agonist): 7.68 nM
CCN(CC)C(=O)[C@@H]1C=C2c3cccc4[nH]cc(c34)C[C@H]2N(Cc2ccc(Cl)cc2)C1 [Compound 50, (6aR,9R)-7-(4-chlorobenzyl)-N,N-diethyl-4,6,6a,7,8,9-hexahydroindolo[4,3-fg]quinoline-9-carboxamide]			2.94			88.2	41.2		41.9	8.23	65	21.3	> 10000	3240	> 10000	> 10000					EC50 (5-HT2A receptor [4]; agonist): 34.7 nM
CCN(CC)C(=O)[C@@H]1C=C2c3cccc4[nH]cc(c34)C[C@H]2N(Cc2ccon2)C1 [Compound 70, (6aR,9R)—N,N-diethyl-7-(isoxazol-3-ylmethyl)-4,6,6a,7,8,9-hexahydroindolo[4,3-fg]quinoline-9-carboxamide]			34.4			84.7			17.8	58.6	54.3	25.5	449	38	> 10000	62300	47.9	28.9	154	9	
CCN(CC)C(=O)[C@@H]1C=C2c3cccc4[nH]cc(c34)C[C@H]2N(Cc2cocn2)C1 [Compound 73, (6aR,9R)—N,N-diethyl-7-(oxazol-4-ylmethyl)-4,6,6a,7,8,9-hexahydroindolo[4,3-fg]quinoline-9-carboxamide]			60.9			92.1			73.6	78.7	45.6	30.4	375	47.6	1370	586	51.8	26.8	76.7	18.1	
CCN(CC)C(=O)[C@@H]1C=C2c3cccc4[nH]cc(c34)C[C@H]2N(Cc2cccc(C#N)c2)C1 [Compound 76, (6aR,9R)—N,N-diethyl-7-(3-cyanobenzyl)-4,6,6a,7,8,9-hexahydroindolo[4,3-fg]quinoline-9-carboxamide]			0.93			82.1			93.4	77	64.1	21.6	> 10000	6620	1490	25400	114	12.1	576	2.4	
CCN(C)C(=O)[C@@H]1C=C2c3cccc4[nH]cc(c34)C[C@H]2N(Cc2ccccc2)C1 [Compound 85, (6aR,9R)-7-benzyl-N-ethyl-N-methyl-4,6,6a,7,8,9-hexahydroindolo[4,3-fg]quinoline-9-carboxamide]			3.73			60.6				36.8	95	14.6	> 10000	500		> 10000	131	10.5	184	7.5	
CC[C@@H](C)NC(=O)[C@@H]1C=C2c3cccc4[nH]cc(c34)C[C@H]2N(C)C1 [Int8]			17.7			96.2	46.1	partial agonists		90.2											half-life (t1/2) (in vitro [1]; human, microsomes, pH 7.4): 64.9 min; half-life (t1/2) (in vitro [2]; rat, microsomes, pH 7.4): 99.5 min; half-life (t1/2) (in vitro [5]; mouse, microsomes, pH 7.4): 39.9 min
